# Results taken from the supplement of paper PMC10331698.
# ± gives the standard deviation of the averaged measurements.
# Experiments:
# Assay in all cases: level (log10 ratio to DMSO vehicle control); higher = higher biomarker level / cell amount than vehicle control
# Perfluoroundecanoic acid = compound: O=C(O)C(F)(F)C(F)(F)C(F)(F)C(F)(F)C(F)(F)C(F)(F)C(F)(F)C(F)(F)C(F)(F)C(F)(F)F [Perfluoroundecanoic acid] (in DMSO); settings: 6700 nM
# Procedure: (§1)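 BioMAP Diversity Plus panel of 12 human primary cell co-culture systems (3C, 4H, LPS, SAg, BT, BF4T, BE3C, CASM3C, HDF3CGF, KF3CT, MyoF, Mphg). Compounds were added 1 h before stimulation and left for 24 h (MyoF 48 h; BT 72 h for soluble read-outs or 6 d for IgG). Biomarkers were read by ELISA, cytotoxicity by SRB, PBMC viability and proliferation by Alamar Blue. Each well value was divided by the mean of 8 DMSO control wells on the same plate and log10 transformed; duplicate blinded samples were tested at 4 concentrations.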
# [1] = compound: NS(=O)(=O)C(F)(F)C(F)(F)C(F)(F)C(F)(F)C(F)(F)C(F)(F)C(F)(F)C(F)(F)F [Perfluorooctanesulfonamide] (in DMSO)
# Procedure: as §1
# [2] = compound: OCCC(F)(F)C(F)(F)C(F)(F)C(F)(F)F [4:2 Fluorotelomer alcohol] (in DMSO)
# Procedure: as §1
# [3] = compound: OCC(F)(F)OC(F)(F)C(F)(F)OC(F)(F)C(F)(F)OC(F)(F)CO [1H,1H,11H,11H-Perfluorotetraethylene glycol] (in DMSO)
# Procedure: as §1
# [4] = compound: O=C(O)CCC(F)(C(F)(F)F)C(F)(F)F [4,4-bis(Trifluoromethyl)-4-fluoropropanoic acid] (in DMSO)
# Procedure: as §1
# [5] = compound: CN(C(=O)C(F)(F)C(F)(F)C(F)(F)F)[Si](C)(C)C [N-Methyl-N-trimethylsilylheptafluorobutyramide] (in DMSO)
# Procedure: as §1
# [6] = compound: CO[Si](C)(CCC(F)(F)C(F)(F)C(F)(F)C(F)(F)C(F)(F)C(F)(F)F)OC [Dimethoxymethyl((perfluorohexyl)ethyl)silane] (in DMSO)
# Procedure: as §1
# [7] = compound: O=C(O)C=C(C(F)(F)F)C(F)(F)F [3,3-Bis(trifluoromethyl)-2-propenoic acid] (in DMSO)
# Procedure: as §1
test system,measurement,setting,value
MyoF:alpha-SM Actin,level (log10),Perfluoroundecanoic acid,-0.061 ± 0.0085
same,level (log10),[1]; 6700 nM,-0.0355 ± 0.037
same,level (log10),[1]; 20000 nM,-0.63 ± 0.1
same,level (log10),[2]; 6700 nM,-0.021
same,level (log10),[2]; 20000 nM,-0.0225 ± 0.0035
same,level (log10),[2]; 60000 nM,-0.0345 ± 0.018
same,level (log10),[3]; 6700 nM,-0.0125 ± 0.026
same,level (log10),[3]; 20000 nM,-0.057 ± 0.0042
same,level (log10),[3]; 60000 nM,-0.167 ± 0.037
same,level (log10),[4]; 6700 nM,0.0205 ± 0.093
same,level (log10),[4]; 20000 nM,0.03 ± 0.095
same,level (log10),[4]; 60000 nM,0.0195 ± 0.079
same,level (log10),[5]; 6700 nM,0.0035 ± 0.0021
same,level (log10),[5]; 20000 nM,-0.01 ± 0.0014
same,level (log10),[5]; 60000 nM,0.0005 ± 0.021
same,level (log10),[6]; 6700 nM,-0.0045 ± 0.0064
same,level (log10),[6]; 20000 nM,-0.018 ± 0.018
same,level (log10),[7]; 6700 nM,-0.003 ± 0.054
same,level (log10),[7]; 20000 nM,-0.01 ± 0.067
same,level (log10),[7]; 60000 nM,-0.0795 ± 0.044
MyoF:bFGF,level (log10),Perfluoroundecanoic acid,0.0035 ± 0.0092
same,level (log10),[1]; 6700 nM,0.0115 ± 0.00071
same,level (log10),[1]; 20000 nM,-0.0145 ± 0.0021
same,level (log10),[2]; 6700 nM,-0.0015 ± 0.013
same,level (log10),[2]; 20000 nM,-0.0025 ± 0.015
same,level (log10),[2]; 60000 nM,0.004 ± 0.044
same,level (log10),[3]; 6700 nM,0.0045 ± 0.00071
same,level (log10),[3]; 20000 nM,0.0045 ± 0.0092
same,level (log10),[3]; 60000 nM,0.004 ± 0.011
same,level (log10),[4]; 6700 nM,0.005 ± 0.025
same,level (log10),[4]; 20000 nM,0.002 ± 0.023
same,level (log10),[4]; 60000 nM,0.0155 ± 0.015
same,level (log10),[5]; 6700 nM,0.0025 ± 0.0078
same,level (log10),[5]; 20000 nM,0.012 ± 0.0042
same,level (log10),[5]; 60000 nM,0.0125 ± 0.012
same,level (log10),[6]; 6700 nM,0.002 ± 0.0085
same,level (log10),[6]; 20000 nM,0.0055 ± 0.011
same,level (log10),[7]; 6700 nM,0.0125 ± 0.0064
same,level (log10),[7]; 20000 nM,0.0075 ± 0.019
same,level (log10),[7]; 60000 nM,0.0325 ± 0.019
lMphg:CCL2/MCP-1,level (log10),Perfluoroundecanoic acid,0.0025 ± 0.028
same,level (log10),[1]; 6700 nM,-0.032 ± 0.016
same,level (log10),[1]; 20000 nM,-0.0485 ± 0.046
same,level (log10),[2]; 6700 nM,-0.018 ± 0.024
same,level (log10),[2]; 20000 nM,-0.0325 ± 0.0035
same,level (log10),[2]; 60000 nM,-0.014 ± 0.031
same,level (log10),[3]; 6700 nM,-0.0285 ± 0.032
same,level (log10),[3]; 20000 nM,-0.079 ± 0.034
same,level (log10),[3]; 60000 nM,-0.073 ± 0.052
same,level (log10),[4]; 6700 nM,-0.01 ± 0.017
same,level (log10),[4]; 20000 nM,0.0105 ± 0.0064
same,level (log10),[4]; 60000 nM,0.011 ± 0.017
same,level (log10),[5]; 6700 nM,-0.023 ± 0.0085
same,level (log10),[5]; 20000 nM,-0.019 ± 0.0028
same,level (log10),[5]; 60000 nM,0.002 ± 0.034
same,level (log10),[6]; 6700 nM,-0.027 ± 0.0057
same,level (log10),[6]; 20000 nM,0.001 ± 0.033
same,level (log10),[7]; 6700 nM,-0.007 ± 0.0028
same,level (log10),[7]; 20000 nM,-0.016 ± 0.0028
same,level (log10),[7]; 60000 nM,-0.078 ± 0.061
lMphg:CCL3/MIP-1alpha,level (log10),Perfluoroundecanoic acid,-0.004 ± 0.023
same,level (log10),[1]; 6700 nM,-0.003 ± 0.016
same,level (log10),[1]; 20000 nM,0.023 ± 0.0099
same,level (log10),[2]; 6700 nM,-0.009 ± 0.0042
same,level (log10),[2]; 20000 nM,-0.011 ± 0.014
same,level (log10),[2]; 60000 nM,0.0005 ± 0.019
same,level (log10),[3]; 6700 nM,-0.051 ± 0.051
same,level (log10),[3]; 20000 nM,-0.0435 ± 0.026
same,level (log10),[3]; 60000 nM,0.015 ± 0.055
same,level (log10),[4]; 6700 nM,0.03 ± 0.047
same,level (log10),[4]; 20000 nM,0.0255 ± 0.025
same,level (log10),[4]; 60000 nM,0.021 ± 0.035
same,level (log10),[5]; 6700 nM,-0.007 ± 0.0057
same,level (log10),[5]; 20000 nM,-0.018 ± 0.011
same,level (log10),[5]; 60000 nM,0.0255 ± 0.032
same,level (log10),[6]; 6700 nM,-0.012 ± 0.0099
same,level (log10),[6]; 20000 nM,0.0065 ± 0.023
same,level (log10),[7]; 6700 nM,-0.0065 ± 0.071
same,level (log10),[7]; 20000 nM,-0.0015 ± 0.023
same,level (log10),[7]; 60000 nM,-0.0075 ± 0.016
lMphg:CD40,level (log10),Perfluoroundecanoic acid,-0.008 ± 0.018
same,level (log10),[1]; 6700 nM,-0.0365 ± 0.016
same,level (log10),[1]; 20000 nM,-0.0925 ± 0.0092
same,level (log10),[2]; 6700 nM,0.0015 ± 0.013
same,level (log10),[2]; 20000 nM,0.016 ± 0.0085
same,level (log10),[2]; 60000 nM,0.0025 ± 0.015
same,level (log10),[3]; 6700 nM,-0.0235 ± 0.019
same,level (log10),[3]; 20000 nM,-0.0385 ± 0.013
same,level (log10),[3]; 60000 nM,-0.0755 ± 0.03
same,level (log10),[4]; 6700 nM,0.0025 ± 0.016
same,level (log10),[4]; 20000 nM,-0.001 ± 0.041
same,level (log10),[4]; 60000 nM,-0.031 ± 0.041
same,level (log10),[5]; 6700 nM,-0.008 ± 0.027
same,level (log10),[5]; 20000 nM,-0.016
same,level (log10),[5]; 60000 nM,-0.0145 ± 0.022
same,level (log10),[6]; 6700 nM,-0.006 ± 0.0014
same,level (log10),[6]; 20000 nM,-0.012 ± 0.013
same,level (log10),[7]; 6700 nM,-0.0255 ± 0.00071
same,level (log10),[7]; 20000 nM,-0.0545 ± 0.0035
same,level (log10),[7]; 60000 nM,-0.071 ± 0.014
lMphg:CD62E/E-Selectin,level (log10),Perfluoroundecanoic acid,-0.004 ± 0.041
same,level (log10),[1]; 6700 nM,-0.118 ± 0.041
same,level (log10),[1]; 20000 nM,-0.125 ± 0.0057
same,level (log10),[2]; 6700 nM,-0.0075 ± 0.022
same,level (log10),[2]; 20000 nM,-0.003 ± 0.013
same,level (log10),[2]; 60000 nM,0.0185 ± 0.0021
same,level (log10),[3]; 6700 nM,-0.056 ± 0.037
same,level (log10),[3]; 20000 nM,-0.0635 ± 0.081
same,level (log10),[3]; 60000 nM,-0.072 ± 0.086
same,level (log10),[4]; 6700 nM,-0.02 ± 0.038
same,level (log10),[4]; 20000 nM,-0.0155 ± 0.035
same,level (log10),[4]; 60000 nM,-0.0285 ± 0.06
same,level (log10),[5]; 6700 nM,-0.0115 ± 0.00071
same,level (log10),[5]; 20000 nM,0.0015 ± 0.0021
same,level (log10),[5]; 60000 nM,0.0065 ± 0.0021
same,level (log10),[6]; 6700 nM,0.019 ± 0.0099
same,level (log10),[6]; 20000 nM,0.0135 ± 0.033
same,level (log10),[7]; 6700 nM,-0.049 ± 0.0085
same,level (log10),[7]; 20000 nM,-0.068 ± 0.02
same,level (log10),[7]; 60000 nM,-0.14 ± 0.034
lMphg:CD69,level (log10),Perfluoroundecanoic acid,-0.048 ± 0.083
same,level (log10),[1]; 6700 nM,-0.0435 ± 0.052
same,level (log10),[1]; 20000 nM,-0.11 ± 0.037
same,level (log10),[2]; 6700 nM,0.0115 ± 0.07
same,level (log10),[2]; 20000 nM,0.007 ± 0.041
same,level (log10),[2]; 60000 nM,0.0155 ± 0.0035
same,level (log10),[3]; 6700 nM,-0.0285 ± 0.023
same,level (log10),[3]; 20000 nM,-0.0155 ± 0.016
same,level (log10),[3]; 60000 nM,0.0065 ± 0.06
same,level (log10),[4]; 6700 nM,0.015 ± 0.0071
same,level (log10),[4]; 20000 nM,0 ± 0.027
same,level (log10),[4]; 60000 nM,-0.021 ± 0.0042
same,level (log10),[5]; 6700 nM,0.0015 ± 0.005
same,level (log10),[5]; 20000 nM,-0.0075 ± 0.035
same,level (log10),[5]; 60000 nM,-0.039 ± 0.045
same,level (log10),[6]; 6700 nM,-0.0205 ± 0.018
same,level (log10),[6]; 20000 nM,-0.0435 ± 0.037
same,level (log10),[7]; 6700 nM,-0.069 ± 0.024
same,level (log10),[7]; 20000 nM,-0.0915 ± 0.0078
same,level (log10),[7]; 60000 nM,-0.0275 ± 0.067
